Measurements taken from patent US9861625B2, “Methods and compositions for treating cancer through inhibition of PI3K” (Duke University, priority 2014, dated 2018).
Like-named read-outs stand apart in the source and are kept apart here.

Experiments:
Assay type in all cases: cell-based
[1] = system: Raji; assay: MTT cell viability assay; conditions: Homo sapiens, Burkitt Lymphoma, RPMI 10% FBS
From the text: (§1) A total of 60 cell lines representative of different cancer types were obtained from the ATCC and grown and maintained in accordance with the provided guidelines. The cell lines represented the following distinct histologies: mantle cell lymphoma (5 lines: JVM13, Rec1, Mino, JVM2, Jeko); germinal center B-cell derived (“GCB”) DLBCL (19 lines: Farage, BJAB, Ly1, Ly2, Ly7, Ly8, Ly19, HBL2, HT, Karpas422, Pfeiffer, RCK8, RL, Sci-1, Ski, SUDHL4, SUDHL7, Toledo, WSU-NHL); primary mediastinal B-cell lymphoma (“PMBL”) (3 lines: K1106, MEDB1, U2940); Burkitt lymphoma (11 lines: Daudi, CA46, EB1, EB2, EB3, Jijoye, Raji, Ramos, Namwala, BL2, BL41); Hodgkin lymphoma (3 lines: RMPI6666, L1236, L428); activated B-cell derived (“ABC”) DLBCL (6 lines: Ly3, HBL1, TMD8, Ly10, Riva, U2932); multiple myeloma (6 lines: U266, SKMM1, RPMI8226, KMS12, IM9, H929); acute myelogenous leukemia (“AML”) (2 lines: U937, KG1); acute lymphoblastic leukemia (“ALL”) (2 lines: Reh, SR); and T-cell lymphoma (3 lines: Molt4, RPMI8402, Jurkat). The cell lines were tested within six months after resuscitation.
(§2) The 3-(4,5-dimethylthiazol-2-yl)-2,5-diphenyltetrazolium bromide (MTT) cell viability assay was used to determine cell viability in response to drug treatment. Five replicates per concentration tested were carried out in serial dilutions with a total of ten concentrations with a 50% reduction in drug concentration per dilution for each plate. A total of 15 μl of MTT reagent was added to each drug-treated well and incubated for three hours in 37° C. Detergent was added to each drug-treated well and incubated overnight at room temperature without exposure to light. Absorbance was measured at 570 nm using a plate reader from Tecan Group. The IC50 concentration was determined using the publicly available ED50 plus v1.0 software program.

[2] = system: U937; assay: MTT cell viability assay; conditions: Homo sapiens, U-937; U937, AML, RPMI 10% FBS
From the text: as §1, §2

[3] = system: IM9; assay: MTT cell viability assay; conditions: Homo sapiens, IM-9; IM9, Multiple Myeloma, RPMI 10% FBS
From the text: as §1, §2

[4] = system: BJAB; assay: MTT cell viability assay; conditions: Homo sapiens
From the text: as §1, §2

[5] = system: SUDHL4; assay: MTT cell viability assay; conditions: Homo sapiens, SU-DHL-4; SUDHL4, GCB DLBCL, RPMI 15% FBS
From the text: as §1, §2

[6] = system: Daudi; assay: MTT cell viability assay; conditions: Homo sapiens, Burkitt Lymphoma, RPMI 10% FBS
From the text: as §1, §2

[7] = system: TMD8; assay: MTT cell viability assay; conditions: Homo sapiens; TMD8, ABC DLBCL, MEM-α 10% FBS
From the text: as §1, §2

[8] = system: EB3; assay: MTT cell viability assay; conditions: Homo sapiens, EB-3; EB3, Burkitt Lymphoma, RPMI 10% FBS
From the text: as §1, §2

[9] = system: H929; assay: MTT cell viability assay; conditions: Homo sapiens, NCI-H929; H929, Multiple Myeloma, RPMI 10% FBS
From the text: as §1, §2

[10] = system: LY7; assay: MTT cell viability assay; conditions: LY7, GCB DLBCL, OCI
From the text: as §1, §2

[11] = system: Jeko; assay: MTT cell viability assay; conditions: MantleCellLymphoma, RPMI 10% FBS
From the text: as §1, §2

[12] = system: Rec1; assay: MTT cell viability assay; conditions: Homo sapiens; Rec1, MantleCellLymphoma, RPMI 10% FBS
From the text: as §1, §2

[13] = system: Reh; assay: MTT cell viability assay; conditions: Homo sapiens, ALL, RPMI 10% FBS
From the text: as §1, §2

[14] = system: RL; assay: MTT cell viability assay; conditions: Homo sapiens, GCB DLBCL, RPMI 10% FBS
From the text: as §1, §2

[15] = system: RCK8; assay: MTT cell viability assay; conditions: Homo sapiens; RCK8, GCB DLBCL, RPMI 15% FBS
From the text: as §1, §2

[16] = system: LY3; assay: MTT cell viability assay; conditions: LY3, ABC DLBCL, OCI
From the text: as §1, §2

[17] = system: EB1; assay: MTT cell viability assay; conditions: EB1, Burkitt Lymphoma, RPMI 10% FBS
From the text: as §1, §2

[18] = system: Jijoye; assay: MTT cell viability assay; conditions: Burkitt Lymphoma, RPMI 10% FBS
From the text: as §1, §2

[19] = system: Pfeiffer; assay: MTT cell viability assay; conditions: Homo sapiens, GCB DLBCL, RPMI 10% FBS
From the text: as §1, §2

[20] = system: MEDB1; assay: MTT cell viability assay; conditions: MEDB1, PMBL, RPMI 10% FBS
From the text: as §1, §2

[21] = system: Sixty cell lines representing blood cancer histologies; assay: Sensitivity to PI3K inhibition in sixty cancer cell lines (MTT); conditions: BKM120 and BEZ235 in all 60 cell lines; BGT226 in 31 cell lines; read-out: observed IC50s, range over the cell lines
From the text: as §1
as §2, with “program. […]” for “program.”

[22] = BJAB, GCB DLBCL, RPMI 10% FBS, read-out: IC50

IC50 [1] | IC50 [2] | IC50 [5] | IC50 [6] | IC50 [9] | SMILES | IC50 [3] | IC50 [4, 22] | IC50 [7] | IC50 [8] | IC50 [10] | IC50 [11] | IC50 [12] | IC50 [13] | IC50 [14] | IC50 [15] | IC50 [16] | IC50 [17] | IC50 [18] | IC50 [19] | IC50 [20] | also measured
300 nM | 15 nM | 60.8 nM | 46.7 nM | 113 nM | Cn1c(=O)n(-c2ccc(C(C)(C)C#N)cc2)c2c3cc(-c4cnc5ccccc5c4)ccc3ncc21 [BEZ235] | 4500 nM | 26.9 nM | 118 nM | 36.8 nM | 257 nM | 51 nM | 82.3 nM | 484 nM | 26 nM | 20 nM | 80 nM | 22.6 nM | 140 nM | 17.1 nM | 1830 nM | IC50 ([4]; BJAB cells, read-out: IC50 concentration): 26.9 nM; IC50 ([4]; BJAB cells, read-out: observed IC50): 26.9 nM; IC50 [21]: 10 to 9000 nM
79.8 nM | 11.2 nM | 51.3 nM | 86.4 nM | 3.6 nM | COc1ccc(-c2ccc3ncc4c(c3c2)n(-c2ccc(N3CCNCC3)c(C(F)(F)F)c2)c(=O)n4C)cn1 [BGT226] | 201 nM | 8.5 nM | 101 nM | 44.5 nM | 20.4 nM | 16.6 nM | 35.9 nM | 13.4 nM | 64.1 nM | 21.8 nM | 20.4 nM | 71.6 nM | 13.1 nM | 20.8 nM | 49.7 nM | IC50 [21]: 3 to 200 nM
2310 nM | 895 nM | 1110 nM | 1300 nM | 1200 nM | Nc1cc(C(F)(F)F)c(-c2cc(N3CCOCC3)nc(N3CCOCC3)n2)cn1 [BKM120] | 575 nM | 1470 nM | 764 nM | 655 nM | 2550 nM | 752 nM | 776 nM | 1020 nM | 2600 nM | 3260 nM | 893 nM | 1070 nM | 2740 nM | 1040 nM | 7790 nM | IC50 [21]: 200 to 7800 nM
